Experimental findings from ChEMBL document CHEMBL3352328, “Synthesis and biological evaluation of a new series of N-acyldiamines as potential antibacterial and antifungal agents” (2014) are described below.

Each structure is given as a SMILES string. In brackets after ≈: the same amount, converted by molar mass. Activity calls are given as the source filed them. Where only a bound is given, the exact number is not on record here.

Assay [1] relates to Pseudomonas aeruginosa. The experiment in a line: Bacteriostatic activity against Pseudomonas aeruginosa ATCC 27853 after 24 hrs. The assay is classed as functional, organism-based.
The test system of assay [2] is Pseudomonas aeruginosa. The experiment in a line: Antimicrobial activity against Pseudomonas aeruginosa ATCC 27853 by broth dilution method. It is filed as functional. For orientation: Dilution methods test growth across graded concentrations, often in twofold steps.
Another assay concerns Candida albicans. The experiment in a line: Antifungal activity against Candida albicans ATCC 18804 by broth microdilution method. It is filed as functional.
The test system of assay [3] is Escherichia coli. The experiment in a line: Antimicrobial activity against Escherichia coli ATCC 11229 by broth dilution method. It is filed as functional.
Assay [4] has as its system Escherichia coli. The assay can be described thus: Bacteriostatic activity against Escherichia coli ATCC 11229 after 24 hrs. The assay is classed as functional, organism-based.
In assay [5] the test system is Staphylococcus aureus. The assay can be described thus: Bactericidal activity against methicillin-resistant Staphylococcus aureus clinical isolate 4 after 24 hrs. It is filed as functional. The following applies: isolate 4, 24 h.
A further assay relates to Candida tropicalis. The assay can be described thus: Antifungal activity against Candida tropicalis ATCC 750 by broth microdilution method. It is filed as functional.
For the next assay, the system named is Candida parapsilosis. The assay can be described thus: Antifungal activity against Candida parapsilosis ATCC 22019 by broth microdilution method. The assay is classed as functional. The note with it: Lodderomyces parapsilosis.
Assay [6] concerns Staphylococcus aureus. The assay can be described thus: Bactericidal activity against methicillin-resistant Staphylococcus aureus clinical isolate 6 after 24 hrs. The assay is classed as functional. The note with it: isolate 6, 24 h.
Assay [7] concerns Staphylococcus aureus. The assay can be described thus: Bactericidal activity against methicillin-resistant Staphylococcus aureus clinical isolate 10 after 24 hrs. It is filed as functional. The following applies: isolate 10, 24 h.
The test system of assay [8] is Staphylococcus aureus. The experiment in a line: Bactericidal activity against methicillin-resistant Staphylococcus aureus clinical isolate 15 after 24 hrs. The assay is classed as functional. The note with it: isolate 15, 24 h.
Assay [9] deals with Staphylococcus aureus. The experiment in a line: Bactericidal activity against methicillin-resistant Staphylococcus aureus clinical isolate 5 after 24 hrs. It is filed as functional. The following applies: isolate 5, 24 h.
Assay [10] concerns Staphylococcus aureus. The assay can be described thus: Bactericidal activity against methicillin-resistant Staphylococcus aureus clinical isolate 18 after 24 hrs. It is filed as functional. The note with it: isolate 18, 24 h.
The test system of assay [11] is Staphylococcus epidermidis. The experiment in a line: Antimicrobial activity against Staphylococcus epidermidis ATCC 12228 by broth dilution method. The assay is classed as functional.
In assay [12] the test system is Staphylococcus aureus. The experiment in a line: Bactericidal activity against methicillin-resistant Staphylococcus aureus clinical isolate 17 after 24 hrs. It is filed as functional. The note with it: isolate 17, 24 h.
In another assay the test system is Nakaseomyces glabratus. The experiment in a line: Antifungal activity against Candida glabrata ATCC 90030 by broth microdilution method. It is filed as functional.
Assay [13] has as its system Staphylococcus aureus. The assay can be described thus: Bactericidal activity against methicillin-resistant Staphylococcus aureus clinical isolate 14 after 24 hrs. The following applies: isolate 14, 24 h. It is filed as functional.
Assay [14] concerns Staphylococcus epidermidis. The experiment in a line: Bacteriostatic activity against Staphylococcus epidermidis ATCC 12228 after 24 hrs. The assay is classed as functional, organism-based.
The subject of assay [15] is Staphylococcus aureus. The assay can be described thus: Bactericidal activity against methicillin-resistant Staphylococcus aureus clinical isolate 2 after 24 hrs. It is filed as functional. The following applies: isolate 2, 24 h.
In assay [16] the test system is Staphylococcus aureus. The assay can be described thus: Bactericidal activity against methicillin-resistant Staphylococcus aureus clinical isolate after 24 hrs. It is filed as functional.
The subject of assay [17] is Staphylococcus aureus. The assay can be described thus: Antimicrobial activity against Staphylococcus aureus ATCC 29213 by broth dilution method. It is filed as functional.
Assay [18] has as its system Staphylococcus aureus. The experiment in a line: Bactericidal activity against methicillin-resistant Staphylococcus aureus clinical isolate 3 after 24 hrs. It is filed as functional. The following applies: isolate 3, 24 h.
In assay [19] the test system is Staphylococcus aureus. The experiment in a line: Bactericidal activity against methicillin-resistant Staphylococcus aureus clinical isolate 21 after 24 hrs. It is filed as functional. The note with it: isolate 21, 24 h.
The subject of assay [20] is Staphylococcus aureus. The experiment in a line: Bactericidal activity against Staphylococcus aureus ATCC 29213 after 24 hrs. It is filed as functional. The following applies: ATCC 29213, 24 h.
The test system of assay [21] is Staphylococcus aureus. The experiment in a line: Bactericidal activity against methicillin-resistant Staphylococcus aureus clinical isolate 19 after 24 hrs. The note with it: isolate 19, 24 h. The assay is classed as functional.
The test system of assay [22] is Staphylococcus aureus. The experiment in a line: Bactericidal activity against methicillin-resistant Staphylococcus aureus clinical isolate 11 after 24 hrs. The assay is classed as functional. The following applies: isolate 11, 24 h.
Assay [23] concerns Staphylococcus aureus. The assay can be described thus: Bactericidal activity against methicillin-resistant Staphylococcus aureus clinical isolate 8 after 24 hrs. The following applies: isolate 8, 24 h. It is filed as functional.
The subject of assay [24] is Staphylococcus aureus. The assay can be described thus: Bactericidal activity against methicillin-resistant Staphylococcus aureus clinical isolate 12 after 24 hrs. The assay is classed as functional. The note with it: isolate 12, 24 h.
For assay [25], the system named is Staphylococcus epidermidis. The assay can be described thus: Bactericidal activity against Staphylococcus epidermidis ATCC 12228 after 24 hrs. It is filed as functional. The note with it: ATCC 12228, 24 h.
In assay [26] the test system is Staphylococcus aureus. The experiment in a line: Bactericidal activity against methicillin-resistant Staphylococcus aureus clinical isolate 7 after 24 hrs. The assay is classed as functional. The note with it: isolate 7, 24 h.
In assay [27] the test system is Staphylococcus aureus. The experiment in a line: Bactericidal activity against methicillin-resistant Staphylococcus aureus clinical isolate 20 after 24 hrs. It is filed as functional. The following applies: isolate 20, 24 h.
The subject of assay [28] is Escherichia coli. The assay can be described thus: Bactericidal activity against Escherichia coli ATCC 11229 after 24 hrs. It is filed as functional. The following applies: ATCC 11229, 24 h.
The test system of assay [29] is Pseudomonas aeruginosa. The experiment in a line: Bactericidal activity against Pseudomonas aeruginosa ATCC 27853 after 24 hrs. The assay is classed as functional. The note with it: ATCC 27853, 24 h.
In assay [30] the test system is Staphylococcus aureus. The assay can be described thus: Bactericidal activity against methicillin-resistant Staphylococcus aureus clinical isolate 16 after 24 hrs. The note with it: isolate 16, 24 h. The assay is classed as functional.
Assay [31] relates to Staphylococcus aureus. The assay can be described thus: Bactericidal activity against methicillin-resistant Staphylococcus aureus clinical isolate 9 after 24 hrs. The assay is classed as functional. The following applies: isolate 9, 24 h.
In assay [32] the test system is Staphylococcus aureus. The assay can be described thus: Bactericidal activity against methicillin-resistant Staphylococcus aureus clinical isolate 1 after 24 hrs. It is filed as functional. The note with it: isolate 1, 24 h.
The subject of assay [33] is Staphylococcus aureus. The experiment in a line: Bactericidal activity against methicillin-resistant Staphylococcus aureus clinical isolate 13 after 24 hrs. It is filed as functional. The note with it: isolate 13, 24 h.

`CCCCCCCCCCCCCC(=O)NCCN`: the outcome (in the assay on Pseudomonas aeruginosa [1]; in the assay on Escherichia coli [4]; in assay [14]) was Active. For the same compound, the MIC (as a rule, the lowest concentration that inhibits growth of the organism) in the assay on Pseudomonas aeruginosa [2] was 1020 µg/mL (≈ 3790 µM); against Candida albicans, 4 µg/mL (≈ 14.8 µM); in the assay with Escherichia coli [3], 64 µg/mL (≈ 237 µM); against Candida tropicalis, 16 µg/mL (≈ 59.2 µM); against Candida parapsilosis, 32 µg/mL (≈ 118 µM); in [11], 16 µg/mL (≈ 59.2 µM). Further, the results for the MIC against Nakaseomyces glabratus and in the assay on Staphylococcus aureus [17] were 16 µg/mL (≈ 59.2 µM) and 8 µg/mL (≈ 29.6 µM), respectively. Also, the MBC – broadly, the smallest concentration meeting the test's criterion for killing – against Staphylococcus aureus [5] was 512 µg/mL (≈ 1890 µM); with Staphylococcus aureus [6], 512 µg/mL (≈ 1890 µM); with Staphylococcus aureus [7] it was 512 µg/mL (≈ 1890 µM); against Staphylococcus aureus [8], 64 µg/mL (≈ 237 µM); against Staphylococcus aureus [9] it was 512 µg/mL (≈ 1890 µM); against Staphylococcus aureus [10], 128 µg/mL (≈ 473 µM). Also, the minimal bactericidal concentration (MBC) worked out at 128 µg/mL (≈ 473 µM) with Staphylococcus aureus [12]; 128 µg/mL (≈ 473 µM) in the assay on Staphylococcus aureus [13]; 512 µg/mL (≈ 1890 µM) in the assay with Staphylococcus aureus [15]; 512 µg/mL (≈ 1890 µM) in the assay with Staphylococcus aureus [18]; 128 µg/mL (≈ 473 µM) in the assay on Staphylococcus aureus [19]; 128 µg/mL (≈ 473 µM) in the assay with Staphylococcus aureus [20]. The MIC50 (usually an inhibitory concentration at the 50% level, which refers to growth in some studies and to a panel of isolates in others) against Staphylococcus aureus [16] is 32 µg/mL (≈ 118 µM). Moreover, the MIC90 (usually the lowest concentration that inhibits either 90% of growth or 90% of the strains tested, depending on the study) against Staphylococcus aureus [16] amounted to 256 µg/mL (≈ 947 µM).
For the compound `CCCCCCCC/C=C\CCCCCCCC(=O)NCCN`, the MIC was more than 1020 µg/mL in the assay with Pseudomonas aeruginosa [2]; 128 µg/mL (≈ 394 µM) in the assay with Candida albicans; more than 1020 µg/mL with Escherichia coli [3]; 128 µg/mL (≈ 394 µM) against Candida tropicalis; 128 µg/mL (≈ 394 µM) against Candida parapsilosis; 8 µg/mL (≈ 24.6 µM) in [11]. Besides, the MIC is 64 µg/mL (≈ 197 µM) in the assay on Nakaseomyces glabratus and more than 1020 µg/mL in the assay with Staphylococcus aureus [17]. For the same compound, in assay [14], the result was Active.
On to `CCCCCCCCCCCCCC(=O)NCCCN`, for which the outcome (with Pseudomonas aeruginosa [1]; in assay [14]) was Active. In addition, the MIC with Pseudomonas aeruginosa [2] is 1020 µg/mL (≈ 3600 µM); against Candida albicans, 32 µg/mL (≈ 112 µM); against Escherichia coli [3], more than 1020 µg/mL; against Candida tropicalis it was 32 µg/mL (≈ 112 µM); in the assay on Candida parapsilosis, 16 µg/mL (≈ 56.2 µM); in assay [11], 1020 µg/mL (≈ 3600 µM). Also, the results for the minimum inhibitory concentration (MIC) with Nakaseomyces glabratus and in the assay on Staphylococcus aureus [17] were 64 µg/mL (≈ 225 µM) and more than 1020 µg/mL, respectively.
For `CCCCCCCCCCCC(=O)NCCN`, the MBC is 128 µg/mL (≈ 528 µM) against Staphylococcus aureus [21]; 256 µg/mL (≈ 1060 µM) against Staphylococcus aureus [5]; more than 1020 µg/mL in the assay with Staphylococcus aureus [22]; 16 µg/mL (≈ 66 µM) against Staphylococcus aureus [23]; more than 1020 µg/mL with Staphylococcus aureus [24]; 32 µg/mL (≈ 132 µM) with Staphylococcus aureus [6]. The minimal bactericidal concentration (MBC) in the assay with Staphylococcus aureus [7] came out at 32 µg/mL (≈ 132 µM); in [25], 16 µg/mL (≈ 66 µM); with Staphylococcus aureus [26], 32 µg/mL (≈ 132 µM); against Staphylococcus aureus [8], 1020 µg/mL (≈ 4220 µM); with Staphylococcus aureus [27], 256 µg/mL (≈ 1060 µM); against Staphylococcus aureus [9], 32 µg/mL (≈ 132 µM). The MBC in the assay with Staphylococcus aureus [10] was 32 µg/mL (≈ 132 µM); with Escherichia coli [28] it was 16 µg/mL (≈ 66 µM); with Pseudomonas aeruginosa [29], 16 µg/mL (≈ 66 µM); in the assay on Staphylococcus aureus [30], 1020 µg/mL (≈ 4220 µM); in the assay with Staphylococcus aureus [12] it was 256 µg/mL (≈ 1060 µM); against Staphylococcus aureus [31], 32 µg/mL (≈ 132 µM). Also, the minimal bactericidal concentration (MBC) with Staphylococcus aureus [13] was more than 1020 µg/mL; against Staphylococcus aureus [15], 256 µg/mL (≈ 1060 µM); in the assay on Staphylococcus aureus [32], 1020 µg/mL (≈ 4220 µM); against Staphylococcus aureus [33] it was 32 µg/mL (≈ 132 µM); in the assay on Staphylococcus aureus [18], 1020 µg/mL (≈ 4220 µM); against Staphylococcus aureus [19], more than 1020 µg/mL. Besides, in the assay on Staphylococcus aureus [20], the minimum bactericidal concentration (MBC) was found to be 16 µg/mL (≈ 66 µM). The minimum inhibitory concentration (MIC) in the assay on Pseudomonas aeruginosa [2] came out at 8 µg/mL (≈ 33 µM); against Candida albicans, 128 µg/mL (≈ 528 µM); in the assay on Escherichia coli [3] it was 8 µg/mL (≈ 33 µM); against Candida tropicalis it was 16 µg/mL (≈ 66 µM); against Candida parapsilosis it was 16 µg/mL (≈ 66 µM); in assay [11], 16 µg/mL (≈ 66 µM). Also, the MIC in the assay with Nakaseomyces glabratus and with Staphylococcus aureus [17] was 16 µg/mL (≈ 66 µM) throughout. The compound further came in with an MIC50 against Staphylococcus aureus [16] of 32 µg/mL (≈ 132 µM). The same compound had an MIC90 in the assay on Staphylococcus aureus [16] of more than 1020 µg/mL.
